Results as given in paper PMC11277489, “Novel Piperazine Derivatives of Vindoline as Anticancer Agents” (International Journal of Molecular Sciences, 2024).

Legend:
[1] = system: SK-MEL-2; assay: NCI60 one-dose screen (10 μM), Melanoma; type: cell-based; conditions: Homo sapiens; 10 μM; SK-MEL-2, Melanoma; read-out: Growth percent rate
[2] = system: NCI-H460; assay: NCI60 one-dose screen (10 μM), Non-small Cell Lung Cancer; type: cell-based; conditions: Homo sapiens; 10 μM; NCI-H460, Non-small Cell Lung Cancer; read-out: Growth percent rate
[3] = system: KM12; assay: NCI60 one-dose screen (10 μM), Colon Cancer; type: cell-based, human; conditions: Homo sapiens; 10 μM; KM12, Colon Cancer; read-out: Growth percent rate
[4] = system: RPMI-8226; assay: NCI60 one-dose screen (10 μM), Leukemia; type: cell-based; conditions: Homo sapiens; 10 μM; RPMI-8226, Leukemia; read-out: Growth percent rate
[5] = system: U251; assay: NCI60 one-dose screen (10 μM), CNS Cancer; type: cell-based; conditions: Homo sapiens, U-251; 10 μM; U251, CNS Cancer; read-out: Growth percent rate
[6] = system: K-562; assay: NCI60 one-dose screen (10 μM), Leukemia; type: cell-based; conditions: Homo sapiens, K562; 10 μM; K-562, Leukemia; read-out: Growth percent rate
[7] = system: EKVX; assay: NCI60 one-dose screen (10 μM), Non-small Cell Lung Cancer; type: cell-based; conditions: Homo sapiens, 10 μM, Non-small Cell Lung Cancer, read-out: Growth percent rate
[8] = system: NCI-H23; assay: as above; type: cell-based; conditions: Homo sapiens; 10 μM; NCI-H23, Non-small Cell Lung Cancer; read-out: Growth percent rate
[9] = system: NCI-H322M; assay: as above; type: cell-based; conditions: Homo sapiens, 10 μM, Non-small Cell Lung Cancer, read-out: Growth percent rate
[10] = system: HL-60(TB); assay: NCI60 one-dose screen (10 μM), Leukemia; type: cell-based; conditions: Homo sapiens; 10 μM; HL-60(TB), Leukemia; read-out: Growth percent rate
[11] = system: 786–0; assay: NCI60 one-dose screen (10 μM), Renal Cancer; type: cell-based; conditions: Homo sapiens; 10 μM; 786-0, Renal Cancer; read-out: Growth percent rate
[12] = system: MDA-MB-435; assay: NCI60 one-dose screen (10 μM), Melanoma; type: cell-based; conditions: Homo sapiens; 10 μM; MDA-MB-435, Melanoma; read-out: Growth percent rate
[13] = system: LOX IMVI; assay: NCI60 one-dose screen (10 μM), Melanoma; type: cell-based, human; conditions: Homo sapiens; 10 μM; LOX IMVI, Melanoma; read-out: Growth percent rate
[14] = system: A498; assay: NCI60 one-dose screen (10 μM), Renal Cancer; type: cell-based; conditions: Homo sapiens; 10 μM; A498, Renal Cancer; read-out: Growth percent rate
[15] = system: HOP-62; assay: NCI60 one-dose screen (10 μM), Non-small Cell Lung Cancer; type: cell-based; conditions: Homo sapiens; 10 μM; HOP-62, Non-small Cell Lung Cancer; read-out: Growth percent rate
[16] = system: SF-268; assay: NCI60 one-dose screen (10 μM), CNS Cancer; type: cell-based; conditions: Homo sapiens; 10 μM; SF-268, CNS Cancer; read-out: Growth percent rate
[17] = system: MCF7; assay: NCI60 one-dose screen (10 μM), Breast Cancer; type: cell-based; conditions: Homo sapiens; 10 μM; MCF7, Breast Cancer; read-out: Growth percent rate
[18] = system: COLO 205; assay: NCI60 one-dose screen (10 μM), Colon Cancer; type: cell-based, human; conditions: for activity at 10 µM: Homo sapiens, COLO 205, Colon Cancer, read-out: Growth percent rate
[19] = system: OVCAR-4; assay: NCI60 one-dose screen (10 μM), Ovarian Cancer; type: cell-based; conditions: Homo sapiens; 10 μM; OVCAR-4, Ovarian Cancer; read-out: Growth percent rate
[20] = system: SF-539; assay: NCI60 one-dose screen (10 μM), CNS Cancer; type: cell-based, human; conditions: for activity at 10 µM: Homo sapiens, SF-539, CNS Cancer, read-out: Growth percent rate
[21] = system: IGROV1; assay: NCI60 one-dose screen (10 μM), Ovarian Cancer; type: cell-based; conditions: Homo sapiens, IGROV-1; 10 μM; IGROV1, Ovarian Cancer; read-out: Growth percent rate
[22] = system: A549/ATCC; assay: NCI60 one-dose screen (10 μM), Non-small Cell Lung Cancer; type: cell-based; conditions: Homo sapiens; 10 μM; A549/ATCC, Non-small Cell Lung Cancer; read-out: Growth percent rate
[23] = system: MALME-3M; assay: NCI60 one-dose screen (10 μM), Melanoma; type: cell-based; conditions: Homo sapiens; 10 μM; MALME-3M, Melanoma; read-out: Growth percent rate
[24] = system: UACC-257; assay: NCI60 one-dose screen (10 μM), Melanoma; type: cell-based; conditions: Homo sapiens; 10 μM; UACC-257, Melanoma; read-out: Growth percent rate
[25] = system: RXF 393; assay: NCI60 one-dose screen (10 μM), Renal Cancer; type: cell-based, human; conditions: for activity at 10 µM: Homo sapiens, RXF 393, Renal Cancer, read-out: Growth percent rate
[26] = system: 60 human tumor cell lines (NCI60); assay: NCI60 one-dose screen (10 μM), whole panel; type: cell-based; conditions: for activity at 10 µM: mean over 60 human cancer cell lines, read-out: Growth percent rate, Mean
[27] = system: ACHN; assay: NCI60 one-dose screen (10 μM), Renal Cancer; type: cell-based; conditions: Homo sapiens, 10 μM, Renal Cancer, read-out: Growth percent rate
[28] = system: HS 578T; assay: NCI60 one-dose screen (10 μM), Breast Cancer; type: cell-based; conditions: Homo sapiens; 10 μM; HS 578T, Breast Cancer; read-out: Growth percent rate
[29] = system: SK-MEL-28; assay: NCI60 one-dose screen (10 μM), Melanoma; type: cell-based; conditions: Homo sapiens; 10 μM; SK-MEL-28, Melanoma; read-out: Growth percent rate
[30] = system: MOLT-4; assay: NCI60 one-dose screen (10 μM), Leukemia; type: cell-based, human; conditions: Homo sapiens; 10 μM; MOLT-4, Leukemia; read-out: Growth percent rate
[31] = system: NCI-H522; assay: NCI60 one-dose screen (10 μM), Non-small Cell Lung Cancer; type: cell-based; conditions: Homo sapiens; 10 μM; NCI-H522, Non-small Cell Lung Cancer; read-out: Growth percent rate
[32] = system: SNB-75; assay: NCI60 one-dose screen (10 μM), CNS Cancer; type: cell-based, human; conditions: Homo sapiens; 10 μM; SNB-75, CNS Cancer; read-out: Growth percent rate
[33] = system: OVCAR-8; assay: NCI60 one-dose screen (10 μM), Ovarian Cancer; type: cell-based; conditions: Homo sapiens; 10 μM; OVCAR-8, Ovarian Cancer; read-out: Growth percent rate
[34] = system: HCT-116; assay: NCI60 one-dose screen (10 μM), Colon Cancer; type: cell-based; conditions: Homo sapiens; 10 μM; HCT-116, Colon Cancer; read-out: Growth percent rate
[35] = system: SN12C; assay: NCI60 one-dose screen (10 μM), Renal Cancer; type: cell-based; conditions: Homo sapiens, 10 μM, Renal Cancer, read-out: Growth percent rate
[36] = system: CCRF-CEM; assay: NCI60 one-dose screen (10 μM), Leukemia; type: cell-based; conditions: Homo sapiens, 10 μM, Leukemia, read-out: Growth percent rate
[37] = system: SF-295; assay: NCI60 one-dose screen (10 μM), CNS Cancer; type: cell-based; conditions: Homo sapiens; 10 μM; SF-295, CNS Cancer; read-out: Growth percent rate
[38] = system: HCT-15; assay: NCI60 one-dose screen (10 μM), Colon Cancer; type: cell-based; conditions: Homo sapiens; 10 μM; HCT-15, Colon Cancer; read-out: Growth percent rate
[39] = system: TK-10; assay: NCI60 one-dose screen (10 μM), Renal Cancer; type: cell-based; conditions: Homo sapiens; 10 μM; TK-10, Renal Cancer; read-out: Growth percent rate
[40] = system: OVCAR-3; assay: NCI60 one-dose screen (10 μM), Ovarian Cancer; type: cell-based; conditions: Homo sapiens; 10 μM; OVCAR-3, Ovarian Cancer; read-out: Growth percent rate
[41] = system: SW-620; assay: NCI60 one-dose screen (10 μM), Colon Cancer; type: cell-based; conditions: Homo sapiens; 10 μM; SW-620, Colon Cancer; read-out: Growth percent rate
[42] = system: CAKI-1; assay: NCI60 one-dose screen (10 μM), Renal Cancer; type: cell-based; conditions: Homo sapiens; 10 μM; CAKI-1, Renal Cancer; read-out: Growth percent rate

SMILES: CC[C@]12C=CCN3CC[C@@]4(c5ccc(OC)cc5N(C)[C@H]4[C@@](O)(C(=O)OC)[C@@H]1OC(=O)CCCN1CCN(c4ccc(C(F)(F)F)cc4)CC1)[C@@H]32 [Compound 22]
- activity at 10 µM [1]: -93.9%
- activity at 10 µM [2]: -36.9%
- activity at 10 µM [3]: -70%
- activity at 10 µM [4]: -9.29%
- activity at 10 µM [5]: -88.4%
- activity at 10 µM [6]: 6.96%
- activity at 10 µM [7]: -49.9%
- activity at 10 µM [8]: -61.1%
- activity at 10 µM [9]: 50.5%
- activity at 10 µM [10]: 7.9%
- activity at 10 µM [11]: -72.7%
- activity at 10 µM [12]: -78.9%
- activity at 10 µM [13]: -97.2%
- activity at 10 µM [14]: -15.1%
- activity at 10 µM [15]: 0.03%
- activity at 10 µM [16]: 0.04%
- activity at 10 µM [17]: -51.5%
- growth percent rate ([18]; 10 μM one-dose, COLO-205 colon cancer, negative = lethality): −93.46%
- activity at 10 µM [18]: -93.5%
- activity at 10 µM [19]: -18.9%
- growth percent rate ([20]; 10 μM one-dose, SF-539 CNS cancer, negative = lethality): −96.98%
- activity at 10 µM [20]: -97%
- activity at 10 µM [21]: -28.9%
- activity at 10 µM [22]: 4.54%
- activity at 10 µM [23]: -90.3%
- activity at 10 µM [24]: -79.3%
- growth percent rate ([25]; 10 μM one-dose, RXF-393 renal cancer, negative = lethality): −91.93%
- activity at 10 µM [25]: -91.9%
- activity at 10 µM [26]: -44.5%
- activity at 10 µM [27]: -20.3%
- activity at 10 µM [28]: -46.2%
- activity at 10 µM [29]: -92.1%
- activity at 10 µM [30]: 9.3%
- activity at 10 µM [31]: -86%
- activity at 10 µM [32]: 2.76%
- activity at 10 µM [33]: -47.4%
- activity at 10 µM [34]: -25.6%
- activity at 10 µM [35]: -66.4%
- activity at 10 µM [36]: 3.97%
- activity at 10 µM [37]: -84.8%
- activity at 10 µM [38]: -82.9%
- activity at 10 µM [39]: -48.5%
- activity at 10 µM [40]: -71.5%
- activity at 10 µM [41]: 7.47%
- activity at 10 µM [42]: -65%

SMILES: CCC12C=CCN3CCC4(c5ccc(OC)cc5N(C)C4C(O)(C(=O)OC)C1OC(=O)CCC(=O)O)C32 (stereo not shown) [Compound 15, 17-(O-3-carboxypropanoyl)vindoline]
- activity at 10 µM [1]: 100%
- activity at 10 µM [2]: 97.4%
- activity at 10 µM [3]: 82.8%
- activity at 10 µM [4]: 84.2%
- activity at 10 µM [5]: 105%
- activity at 10 µM [6]: 90.5%
- activity at 10 µM [7]: 87.4%
- activity at 10 µM [8]: 92.5%
- activity at 10 µM [9]: 73.9%
- activity at 10 µM [10]: 114%
- activity at 10 µM [11]: 98.1%
- activity at 10 µM [12]: 110%
- activity at 10 µM [13]: 107%
- activity at 10 µM [14]: 90.6%
- activity at 10 µM [15]: 102%
- activity at 10 µM [16]: 87.2%
- activity at 10 µM [17]: 68.2%
- activity at 10 µM [18]: 93.6%
- activity at 10 µM [19]: 80.2%
- activity at 10 µM [20]: 92.9%
- activity at 10 µM [21]: 90%
- activity at 10 µM [22]: 94.3%
- activity at 10 µM [23]: 90.3%
- activity at 10 µM [24]: 91.5%
- activity at 10 µM [25]: 96.6%
- antiproliferative effect (in words) ([26]; 10 μM one-dose, NCI60): a notable antiproliferative effect was not shown
- activity at 10 µM [26]: 91.7%
- activity at 10 µM [27]: 102%
- activity at 10 µM [28]: 69.3%
- activity at 10 µM [29]: 86.7%
- activity at 10 µM [30]: 106%
- activity at 10 µM [31]: 84.2%
- activity at 10 µM [32]: 53.4%
- activity at 10 µM [33]: 91.8%
- activity at 10 µM [34]: 98.6%
- activity at 10 µM [35]: 92.9%
- activity at 10 µM [36]: 105%
- activity at 10 µM [37]: 113%
- activity at 10 µM [38]: 98.4%
- activity at 10 µM [39]: 90.8%
- activity at 10 µM [40]: 74.9%
- activity at 10 µM [41]: 102%
- activity at 10 µM [42]: 95.5%
